In patent US8232274B2, “Pyridazinone derivatives useful as glucan synthase inhibitors” (Albany Molecular Research, Inc., priority 2007, dated 2012):

Columns and labels:
glucan synthase [1] = biological target: T1, glucan synthase (Saccharomyces cerevisiae, UniProt P38631); assay: β(1,3) glucan synthase assay, S. cerevisiae PM503 permeabilized cells or membrane preparation (IC50); assay type: biochemical
T1 construct: glucan synthase sources (2 μL permeabilized PM503 cells, or 3 μL membrane preparations from either PM503, BWP17, or ND158); endogenous in cells; host or cells: S. cerevisiae strain PM503, permeabilized cells or 100,000 g membrane fraction
T1 sequence (P06780 1-206): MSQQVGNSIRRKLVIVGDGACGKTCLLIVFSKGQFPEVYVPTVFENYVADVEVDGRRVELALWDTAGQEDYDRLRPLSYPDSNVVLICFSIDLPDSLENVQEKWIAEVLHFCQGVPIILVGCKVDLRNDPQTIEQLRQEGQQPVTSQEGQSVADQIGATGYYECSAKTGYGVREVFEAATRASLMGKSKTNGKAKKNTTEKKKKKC
T1 sequence (P38631 whole entry): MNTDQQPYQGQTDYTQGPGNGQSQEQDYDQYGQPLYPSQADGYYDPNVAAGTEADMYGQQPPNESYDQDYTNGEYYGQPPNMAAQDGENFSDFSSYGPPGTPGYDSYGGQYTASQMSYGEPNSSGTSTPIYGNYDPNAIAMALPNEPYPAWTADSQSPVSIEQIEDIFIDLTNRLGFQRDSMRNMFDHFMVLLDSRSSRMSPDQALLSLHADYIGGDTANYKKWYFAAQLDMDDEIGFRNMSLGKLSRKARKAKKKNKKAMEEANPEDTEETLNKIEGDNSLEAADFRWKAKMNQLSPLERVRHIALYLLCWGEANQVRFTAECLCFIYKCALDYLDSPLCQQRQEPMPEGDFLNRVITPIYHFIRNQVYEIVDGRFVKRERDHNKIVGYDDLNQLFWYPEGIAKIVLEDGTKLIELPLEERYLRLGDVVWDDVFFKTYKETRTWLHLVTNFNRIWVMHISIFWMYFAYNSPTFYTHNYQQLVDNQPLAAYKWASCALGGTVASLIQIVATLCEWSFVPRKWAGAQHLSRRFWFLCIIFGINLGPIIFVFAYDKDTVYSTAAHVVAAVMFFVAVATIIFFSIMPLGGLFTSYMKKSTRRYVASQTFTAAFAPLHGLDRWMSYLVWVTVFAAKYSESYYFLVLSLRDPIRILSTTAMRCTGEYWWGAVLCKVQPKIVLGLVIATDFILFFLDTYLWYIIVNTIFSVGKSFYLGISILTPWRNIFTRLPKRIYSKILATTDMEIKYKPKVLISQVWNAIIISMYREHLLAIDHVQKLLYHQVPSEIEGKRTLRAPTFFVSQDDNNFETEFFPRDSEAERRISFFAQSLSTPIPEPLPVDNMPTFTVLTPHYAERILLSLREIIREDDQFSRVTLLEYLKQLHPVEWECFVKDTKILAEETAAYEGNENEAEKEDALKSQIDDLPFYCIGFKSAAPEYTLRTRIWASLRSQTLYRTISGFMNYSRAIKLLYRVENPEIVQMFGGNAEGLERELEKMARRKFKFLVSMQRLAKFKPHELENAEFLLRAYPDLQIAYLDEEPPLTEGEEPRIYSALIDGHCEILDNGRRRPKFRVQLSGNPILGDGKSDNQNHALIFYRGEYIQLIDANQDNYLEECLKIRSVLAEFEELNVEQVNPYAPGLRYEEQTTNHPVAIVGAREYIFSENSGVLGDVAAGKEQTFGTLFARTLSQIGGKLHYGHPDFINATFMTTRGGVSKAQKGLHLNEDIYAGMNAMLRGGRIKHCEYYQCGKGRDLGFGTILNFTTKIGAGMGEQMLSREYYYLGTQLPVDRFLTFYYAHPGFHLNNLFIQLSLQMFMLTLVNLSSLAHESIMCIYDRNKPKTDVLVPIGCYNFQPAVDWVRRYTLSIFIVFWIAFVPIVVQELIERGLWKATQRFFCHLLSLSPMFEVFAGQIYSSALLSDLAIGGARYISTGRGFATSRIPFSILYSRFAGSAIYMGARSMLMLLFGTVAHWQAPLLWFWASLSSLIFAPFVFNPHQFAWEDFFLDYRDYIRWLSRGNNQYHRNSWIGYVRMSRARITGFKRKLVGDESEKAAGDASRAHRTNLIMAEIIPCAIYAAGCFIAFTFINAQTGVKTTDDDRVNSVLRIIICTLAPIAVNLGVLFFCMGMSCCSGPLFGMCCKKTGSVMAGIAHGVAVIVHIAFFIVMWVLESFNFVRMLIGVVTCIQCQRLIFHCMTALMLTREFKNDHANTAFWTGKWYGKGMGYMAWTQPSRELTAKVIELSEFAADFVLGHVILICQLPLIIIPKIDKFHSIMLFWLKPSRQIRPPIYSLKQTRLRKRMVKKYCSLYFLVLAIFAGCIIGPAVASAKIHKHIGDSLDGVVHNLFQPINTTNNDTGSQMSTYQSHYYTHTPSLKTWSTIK
Procedure: (§1) β(1,3) Glucan Synthase Assay:
1. Preparation of Permeabilized Saccharomyces cerevisiae Cells.
Permeabilization of yeast cells was performed according to Crotti et al. (Analytical Biochemistry, 292, 8-16, 2001) with some modifications. A 10 ml-starter culture of the S. cerevisiae strain in YPD medium (1% yeast extract, 2% bacto-peptone, 2% dextrose) with OD600=3-4 was used to inoculate 1 liter of YPD. The culture was grown at 30° C. until […]. Cells were collected by centrifugation (5,300 g for 15 min at 4° C.) and resuspended in buffer (40 mM EDTA, 100 mM β-mercaptoethanol) at 1 g of cell pellet/3.5 ml buffer. The cell suspension was shaken for 30 min at 30° C., followed by centrifugation at 12,000 g for 10 min at 4° C. The cell pellet was washed with 5 ml 0.8 M sorbitol and resuspended in 6.8 ml of 2.9 mM citric acid, 11.3 mM dibasic sodium phosphate, 1 mM EDTA, 0.8 M sorbitol, with constant shaking at 30)C for 30 min. After centrifugation at 12,000 g for […] at 4° C., the pellet was resuspended in 31.3 ml 50 mM Tris-HCl, pH 7.0, and incubated on ice for 5 min. The mixture was then centrifuged at 12,000 g for 10 min at 4 AC, and the pellet was resuspended in 1 ml of 50 mM Tris-HCl and 33% glycerol, pH 7.5. The permeabilized cell preparation was stored at […] in aliquots.
(§2) 2. Preparation of Membrane Fraction of Yeast Cells
(§3) The protocol was modified from Douglas et al. (Journal of Bacteriology, 176, 5686-5696, 1994). For the preparation of S. cerevisiae and C. albicans membrane fractions, 1 liter of YPD supplemented with 0.02 mg/mL adenine and 0.08 mg/mL uracil was inoculated with 10 mL starter culture of PM503 (OD600=4) or the C. albicans strain BWP17 (OD600=12) in the same medium and grown at 30° C. until OD600 reached about 1. A. fumigatus (stain ND158) membranes were prepared by first preparing a spore suspension from agar slants by adding 6 mL of sterile saline, 0.1% Tween-20 solution to each slant, and resuspending by pipetting and scraping. The spore suspensions were used to inoculate two 200 mL flasks containing Sabouraud dextrose broth media. Cultures were incubated at 37° C., 250 rpm for ˜8 hrs. All cells, S. cerevisiae, C. albicans or A. fumigatus were harvested by centrifugation at 5,300 g at 4° C. for 40 minutes. After washing with 100 mL of breakage buffer (0.1 M KPi, pH 7.0, 1 mM EDTA, 1 mM DTT), the cell pellet was resuspended in 50 ml ice-cold breakage buffer. The mixture was transferred to a bead-beater chamber packed in ice (BioSpec Products, Bartlesville, Okla.). To each 50 mL sample was added 50 g of acid-washed glass beads ([…], Sigma). Cells were disrupted using 12×20 second pulses with 2 min-cooling intervals. Cell debris was removed by centrifugation at 3,000 g for 20 minutes at 4° C., and the supernatant was collected and centrifuged at 100,000 g for 1 hour at 4° C. to pellet the membrane fraction. The pellet was resuspended in 5 mL of ice-cold breakage buffer containing 25% glycerol, homogenized with a Dounce tissue homogenizer and stored at −80° C. in small aliquots.
(§4) 3. Glucan Synthase Assay and Compound Screening
The assay was performed according to Mo et at (Journal of Biological Chemistry, 269, 31267-31274, 1994) and Taft et al. (The Journal of Antibiotics, 47, 1001-1009, 1994), in a 96-well Optiplate (PerkinElmer). To each well was added 3 μL 10× compound stock (in 100% DMSO), or 3 μL of 30 μg/mL caspofungin in 100% DMSO (as positive control), or 3 μL 100% DMSO (as negative control), followed by the addition of appropriate amount of glucan synthase sources (2 μL permeabilized PM503 cells, or 3 μL membrane preparations from either PM503, BWP17, or ND158). The reaction was initiated by adding 25 μL reaction buffer (0.6 mM UDP-Glucose 0.6 nCi [U-^14C]DUP-Glucose (327 mCi/mmol, Amersham Bioscience), 20 μM GTP-γ-S, 25 mM NaF, 7.5 mg/mL BSA, 8% glycerol in 75 mM Tris-HCl, pH 7.5). […]

glucan synthase [2] = biological target: T2, glucan synthase (Candida albicans, UniProt O13428); assay: β(1,3) glucan synthase assay, C. albicans BWP17 membrane preparation (IC50); assay type: biochemical; conditions: in vitro fungal enzyme activity assay, read-out: IC50 (μg/mL) Candida albicans (converted)
T2 construct: glucan synthase sources (2 μL permeabilized PM503 cells, or 3 μL membrane preparations from either PM503, BWP17, or ND158); endogenous in cells; host or cells: C. albicans strain BWP17, 100,000 g membrane fraction
T2 sequence (O13428 1-1897): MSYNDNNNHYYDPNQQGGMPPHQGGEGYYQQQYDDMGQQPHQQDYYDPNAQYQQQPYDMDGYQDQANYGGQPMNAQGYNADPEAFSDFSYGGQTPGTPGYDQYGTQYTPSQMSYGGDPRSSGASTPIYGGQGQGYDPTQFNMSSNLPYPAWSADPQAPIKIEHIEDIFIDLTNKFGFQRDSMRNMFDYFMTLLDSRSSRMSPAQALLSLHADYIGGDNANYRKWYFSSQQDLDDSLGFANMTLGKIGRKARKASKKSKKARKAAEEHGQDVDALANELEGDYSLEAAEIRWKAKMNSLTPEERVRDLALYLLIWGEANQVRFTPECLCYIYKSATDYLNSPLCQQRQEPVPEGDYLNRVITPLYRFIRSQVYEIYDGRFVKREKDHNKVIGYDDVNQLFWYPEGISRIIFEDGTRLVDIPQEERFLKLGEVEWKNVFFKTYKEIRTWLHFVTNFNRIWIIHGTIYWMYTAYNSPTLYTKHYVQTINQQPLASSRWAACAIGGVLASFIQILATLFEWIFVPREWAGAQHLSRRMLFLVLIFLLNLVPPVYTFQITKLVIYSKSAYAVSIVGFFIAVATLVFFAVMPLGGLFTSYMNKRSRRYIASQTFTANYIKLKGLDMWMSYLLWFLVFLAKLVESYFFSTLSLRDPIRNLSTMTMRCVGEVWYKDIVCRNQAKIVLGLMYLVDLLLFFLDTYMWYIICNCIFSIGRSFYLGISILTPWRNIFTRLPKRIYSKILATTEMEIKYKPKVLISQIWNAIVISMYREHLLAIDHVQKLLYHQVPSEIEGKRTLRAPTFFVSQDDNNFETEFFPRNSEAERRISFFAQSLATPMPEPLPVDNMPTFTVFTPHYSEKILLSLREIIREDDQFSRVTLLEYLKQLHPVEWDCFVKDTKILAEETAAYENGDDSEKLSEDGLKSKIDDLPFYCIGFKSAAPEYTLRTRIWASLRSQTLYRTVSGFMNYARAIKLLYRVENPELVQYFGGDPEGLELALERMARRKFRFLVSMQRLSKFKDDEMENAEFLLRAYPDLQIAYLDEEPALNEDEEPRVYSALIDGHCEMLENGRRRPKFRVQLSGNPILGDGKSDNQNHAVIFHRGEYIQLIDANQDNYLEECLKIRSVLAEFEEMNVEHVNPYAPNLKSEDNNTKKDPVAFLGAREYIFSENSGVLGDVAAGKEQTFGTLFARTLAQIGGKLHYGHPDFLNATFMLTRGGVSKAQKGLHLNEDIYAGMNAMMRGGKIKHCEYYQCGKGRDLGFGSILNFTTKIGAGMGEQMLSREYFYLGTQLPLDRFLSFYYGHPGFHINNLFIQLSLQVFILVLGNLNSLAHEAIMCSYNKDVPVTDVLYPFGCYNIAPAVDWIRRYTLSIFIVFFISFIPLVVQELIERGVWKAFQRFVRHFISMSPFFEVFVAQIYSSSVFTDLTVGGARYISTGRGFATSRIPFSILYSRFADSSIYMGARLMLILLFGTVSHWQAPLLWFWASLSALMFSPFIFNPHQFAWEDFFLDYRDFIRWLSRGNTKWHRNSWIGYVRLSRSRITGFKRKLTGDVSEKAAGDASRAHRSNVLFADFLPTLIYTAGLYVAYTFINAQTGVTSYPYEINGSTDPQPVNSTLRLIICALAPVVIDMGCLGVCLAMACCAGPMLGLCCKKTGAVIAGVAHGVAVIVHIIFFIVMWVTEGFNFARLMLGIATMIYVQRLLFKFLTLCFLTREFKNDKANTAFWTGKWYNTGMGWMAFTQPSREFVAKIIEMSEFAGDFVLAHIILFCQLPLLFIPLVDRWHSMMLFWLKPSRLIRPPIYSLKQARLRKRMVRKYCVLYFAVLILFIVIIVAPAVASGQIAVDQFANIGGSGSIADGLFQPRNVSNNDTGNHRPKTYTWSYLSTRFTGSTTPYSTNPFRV
T2 sequence (O42825 1-195 partner limits assumed): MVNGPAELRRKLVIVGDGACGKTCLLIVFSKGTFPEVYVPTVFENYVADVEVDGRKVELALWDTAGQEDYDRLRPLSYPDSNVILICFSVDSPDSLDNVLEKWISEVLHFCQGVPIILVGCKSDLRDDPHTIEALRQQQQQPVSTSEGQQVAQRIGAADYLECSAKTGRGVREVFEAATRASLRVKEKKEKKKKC
Procedure: as §1, §2, §3, §4
The assay was performed according to Mo et at (Journal of Biological Chemistry, 269, 31267-31274, 1994) and Taft et al. (The Journal of Antibiotics, 47, 1001-1009, 1994), in a 96-well Optiplate (PerkinElmer). To each well was added 3 μL 10× compound stock (in 100% DMSO), or 3 μL of 30 μg/mL caspofungin in 100% DMSO (as positive control), or 3 μL 100% DMSO (as negative control), followed by the addition of appropriate amount of glucan synthase sources (2 μL permeabilized PM503 cells, or 3 μL membrane preparations from either PM503, BWP17, or ND158). The reaction was initiated by adding 25 μL reaction buffer (0.6 mM UDP-Glucose 0.6 nCi [U-^14C]DUP-Glucose (327 mCi/mmol, Amersham Bioscience), 20 μM GTP-γ-S, 25 mM NaF, 7.5 mg/mL BSA, 8% glycerol in 75 mM Tris-HCl, pH 7.5). The plate was incubated on a shaker for 1.5 hour at room temperature before being quenched with 250 μL 1% TCA (Trichloroacetic Acid). The quenched reaction was mixed by pipetting, and immediately transferred to a 96-well filter plate (Glass fiber B on 0.65 μm hydrophilic durapore membrane, Millipore) pre-wetted with wash buffer (5% TCA, 60 mM NaPPi). The glucan product was retained on the filter membrane by applying vacuum to the plate using a MultiScreen Resist Vacuum Manifold (Millipore). The filter plate was further washed 4 times with 200 μL wash buffer. The plate was dried at 50° C. for 30 minutes. 100 μL of Microscint-0 (PerkinElmer) was added to each well, and plate was counted in a TopCount NXT plate reader (PerkinElmer).
Dose-response curves were plotted from inhibition data generated. IC50 was determined by fitting the CPM versus the Concentration of the test compound plot with the following equation (4-parameter logistic model, ID Business Solutions XLfit 4.2).

Compound | IC50 (glucan synthase [1]) [nM] | IC50 (glucan synthase [2]) [nM]
CC1CCC(Oc2c(N3CCN(S(=O)(=O)CCCF)CC3)cnn(-c3cccc(Cl)c3)c2=O)C1 (stereo not drawn) [1761Z] | 136 | 312
CC1(COc2c(N3CCN(S(=O)(=O)Cc4ccc(N)cc4)CC3)cnn(-c3cccc(Cl)c3)c2=O)CC1 [745Z] | 73.5 | 110
Cc1cc(CS(=O)(=O)N2CCN(c3cnn(-c4cc(F)cc(F)c4)c(=O)c3OCC3(C)CC3)CC2)ccc1N [1870Z] | 53.6 | 125
CC1(COc2c(N3CCN(S(=O)(=O)Cc4ccc5ocnc5c4)CC3)cnn(-c3cc(F)cc(F)c3)c2=O)CC1 [270*] | 52.5 | 35
CC1(COc2c(N3CCN(S(=O)(=O)Cc4ccc(I)cc4)CC3)cnn(-c3cccc(Cl)c3)c2=O)CC1 [312*, 2-(3-chlorophenyl)-5-(4-(4-iodobenzylsulfonyl)piperazin-1-yl)-4-((1-methylcyclopropyl)methoxy)pyridazin-3(2H)-one] | 91.6 | 107
CC(C)S(=O)(=O)N1CCN(c2cnn(-c3cccc(F)c3)c(=O)c2OCCCCCCC(C)(C)F)CC1 [801Z] | 18.5 | 55.5
CC1CC1COc1c(N2CCN(S(=O)(=O)Cc3ccccc3)CC2)cnn(-c2cc(F)cc(F)c2)c1=O (stereo not drawn) [1529Z-182] | 1.88 | 18.8
CC1(COc2c(N3CCN(S(=O)(=O)Cc4ccccc4)CC3)cnn(-c3cc(F)cc(F)c3)c2=O)CC1 [1529Z-191] | 207 | 37.7
O=c1c(OC2CCCC2)c(N2CCN(S(=O)(=O)Cc3cc(Cl)cc(Cl)c3)CC2)cnn1-c1cccc(Cl)c1 [553Z] | 184 | 351
